Each structure is given as a SMILES string.

The nature of data set [1]: CT scans over seven hours of tumescent injections of saline containing iodine contrast. It counts as in vivo, Yucatan pig. As to the method:
To more accurately determine the timescale over which the local antibiotic concentration remains high, we performed CT scans over a long time period.
The figures are CTs viewing the abdomen of the pig with the head towards the top of the figure. Tumescent injections are seen as 4 rows, and 2 columns of large circular white regions, with injection volumes 20 mL, 10 mL, 5 mL and 2.5 mL from top row to bottom. There is one column of 4 tiny white dots along the center of the abdomen that are skin markers placed in the same axial plane as the location of the injections for reference. It is clear that the iodine concentration may remain high for several hours. While the 20 mL injections are clearly visible for 5 hours, the 2.5 mL injections are easily seen for only 3 hours.
Each value along the lineout represents the max attenuation value below that point on a line perpendicular to the surface (Maximum Intensity Projection mode). For comparison, we measured the attenuation of a vial of pure infusate to be 500 HU, and the attenuation of normal subcutaneous tissue to be about −90 HU. A concentration equal to at least half the initial value (or attenuation of […]—half way between the extremes) is maintained for at least 4 hours.

Data set [2] is described as follows: CT images roughly every 10 min of 20 mL tumescent injections, local fraction of contrast.
Procedure: In a different experiment we took CT images roughly every 10 min instead of every hour in order to see the initially rapid dynamics. An axial cross-sectional image is shown in FIG. 14 before and after two 20 mL tumescent injections on symmetric sides of the anesthetized adult Yucatan pig's abdomen.
The initial rise is due to the spreading of the tumescent fluid after the completion of the injection into unexpanded tissue. […] We verified this by multiplying the total volume and mean curves to get a measure of the “total contrast” that remains localized in the tumescence (FIG. 15 bottom, left). Dividing the total contrast curve by its maximum yields the “Localized Fraction” curves of FIG. 15 (bottom, right).
A further data set has as its system MRSA strains. The conditions noted are these: 1 g/100 mL cefazolin in tumescent solution; cited from earlier work.
The conditions of data set [3]: healthy tissue; cited from earlier work.
The conditions of data set [4]: in vivo; cited from earlier work.

For `II` [iodine], in data set [1] (2.5 mL subcutaneous abdominal injection, saline with 2 g/100 mL iodine contrast, healthy adult Yucatan pig), the “time for which the injection is easily seen on CT” value turned out to be 3 h. For the same compound, the “time for which the injection is clearly visible on CT” value in data set [1] (20 mL subcutaneous abdominal injection, saline with 2 g/100 mL iodine contrast, healthy adult Yucatan pig) was 5 h. For the same compound, the “time for which a concentration of at least half the initial value is maintained” value in data set [1] (CT lineouts, maximum intensity projection, attenuation 155 as half way point) is recorded as “at least 4 hours”. For the same compound, the “drop in the local fraction (take-up by lymph and capillaries)” value in data set [2] (over the 70 minutes of the experiment, anesthetized adult Yucatan pig) is around 30%. In addition, in data set [2] (tumescent injection, CT), the “timescale of spontaneous spreading” value is below 5 min and the “timescale of take up by the serum” value was around 1 h.
For the compound `Cc1nnc(SCC2=C(C(=O)O)N3C(=O)[C@@H](NC(=O)Cn4cnnn4)[C@H]3SC2)s1` [cefazolin], the “concentration relative to the MIC” value with MRSA strains is “above the MIC for most, if not all, MRSA strains”.
As for `CNC[C@H](O)c1ccc(O)c(O)c1` [epinephrine], the “systemic absorption time extended by use of a vasoconstrictor” value in data set [3] was above 8 h.
In the case of `CO/N=C(\C(=O)N[C@@H]1C(=O)N2C(C(=O)O)=C(CSc3nc(=O)c(=O)[nH]n3C)CS[C@H]12)c1csc(N)n1` [Ceftriaxone], the “concentration shown to be safe, relative to 1 g/100 mL cefazolin” value in data set [4] was 35 times higher concentrations.

The record behind these values is patent US11389396B2, “Tumescent antibiotic injection for treatment of chronic skin and soft tissue infections” (The Regents of the University of California, priority 2016, dated 2022).
